Test results reported in patent publication US8501166B2, “Pyrimidinyl indole compounds” (Hutchison Medipharma Limited, priority 2010, dated 2013).
Where a name gives a salt, the structure may show the parent alone.

Tests used:
[1] = system: OVA-induced airway inflammation; assay: Ovalbumin (OVA)-induced pulmonary inflammation in mice; assay type: in vivo, Balb/c mice; conditions: dexamethasone 1 mg/kg (qd)
Procedure: A compound of the present invention is tested in an OVA-induced pulmonary inflammation model in mice essentially as described in a method reported in the literature (Muriel Pichavant, Sho Goya, Eckard Hamelmann, Erwin W. Gelfand, and Dale T. Umetsu. Animal Models of Airway Sensitization. Current Protocols in Immunology. (1999) 15.18.1-15.18.13). Briefly, female Balb/c mice weighing from 18 to 20 g are sensitized by introperitoneal injection of 100 μL of saline containing 20 μg of OVA and 2 mg of aluminum hydroxide on day 1 and 14. On days 28, 29 and 30, mice are challenged once each by aerosolizing 1% ovalbumin (OVA) in phosphate buffered saline (PBS) for 20 minutes with Buxco Mass Dosing System. […] On day 32, animals from each group are anesthetized with 1% of pentobarbital sodium. The thoracic and abdominal cavities are opened and plasma is collected from centrifuged specimens. The trachea is then dissected and transected. Through the insertion of an 18-gauge catheter into the trachea, the lungs are lavaged with a total of 1.5 mL of sterile PBS and then placed into a specimen container. Cell-free BAL supernatants are obtained by centrifugation of BAL fluids. All serum and BAL supernatants are stored at −80° C. until use. Differential cell counts are performed on cytospin preparations of BAL cells for cell counting and cytokine determination. After the collection of BAL supernatants, the lungs of recipient mice are removed en bloc and fixed by an intratracheal instillation of 10% buffered formalin (in PBS). Three to six paraffin sections are obtained from the perihilar regions of recipient lungs, stained with hematoxylin and eosin, and examined under light microscopy for pathological study.

Skov3-luc cells = assay: Cell viability test, combination study, Skov3-luc; assay type: cell-based; conditions: Homo sapiens, 72 h, Vincristine 0.25 μM alone, read-out: Ave. Inhibition rate
Procedure: (§1) To evaluate biological activity of a compound in vitro, the cell viability test is applied, in which, IKKβ receptor plays an important role in cell survival and proliferation. Once the IKKβ pathway is blocked by inhibitors, a cell can go through apoptosis or death. The cell viability test provides information on cell survival after treatment with IKK inhibitors.
(§2) BxPC-3 cells (ATCC #CRL-1687; human pancreatic cancer cell line) are grown in Roswell Park Memorial Institute (RPMI) 1640 media (Gibco #A10491-01) supplemented with 10% fetal bovine serum (FBS) (Gibco #10099-141). Skov3-luc cells (ATCC, human ovarian carcinoma cell line) are grown in McCoy's 5a medium (Gibco#16600) supplemented with 10% FBS (Gibco#10099-141). For compound testing, BxPc-3 and Skov3-Luc cells are seeded at 2000 and 5000 cells/well respectively in 100 μL of corresponding media specified above for each cell line in 96-well plates 20 h prior to treatment. Cells are treated with a test compound at eight different concentrations in the presence of 0.5% DMSO for 72 h. Cell death in each well is determined by the addition of 20 μL of the One Solution Reagent (CELLTITER 96® AQueous One Solution Cell Proliferation Assay, Promega #G3580). After 2-4 h of incubation at 37° C., optical densities at 492 nm are measured with a microplate reader Inhibition of cell viability is determined by comparison to the control cells treated in the absence of a test compound.
For the combination study of the compound with other antitumor agents, BxPc-3 and Skov3-Luc cells are seeded at 2000 and 5000 cells/well respectively in 100 μL corresponding media specified above for each cell line in 96-well plates 20 h prior to the treatment. […] Cell death in each well is determined by the addition of 20 μL of the One Solution Reagent (CELLTITER 96® AQueous One Solution Cell Proliferation Assay, Promega #G3580). After 2-4 h of incubation at 37° C., optical densities at 492 nm are measured with a microplate reader Inhibition of cell viability is determined by comparison to the control cells treated in the absence of a test compound. […]

BxPC-3 cells = assay: Cell viability test, combination study, BxPC-3; assay type: cell-based, human; conditions: for Ave. Inhibition rate: 72 h
Procedure: as §1, §2
For the combination study of the compound with other antitumor agents, BxPc-3 and Skov3-Luc cells are seeded at 2000 and 5000 cells/well respectively in 100 μL corresponding media specified above for each cell line in 96-well plates 20 h prior to the treatment. The cells are treated with the test compound at a number of concentrations for 30 minutes and then exposed to 5 ng/mL TNFα or 0.15-0.6 uM of VCR (vincristine sulfate) for an additional 72 hours. Cell death in each well is determined by the addition of 20 μL of the One Solution Reagent (CELLTITER 96® AQueous One Solution Cell Proliferation Assay, Promega #G3580). After 2-4 h of incubation at 37° C., optical densities at 492 nm are measured with a microplate reader Inhibition of cell viability is determined by comparison to the control cells treated in the absence of a test compound. For example, the results of the combination study with Example 1 are specially detailed in Table 2.

[2] = system: SKOV-3x-FF-luci human ovarian cancer xenograft; assay: Antitumor effect in SKOV-3x-FF-luci xenograft with vincristine (VCR); assay type: in vivo, Balb/c nu/nu mice; conditions: VCR alone at suboptimal dose, tail vein, once a week
Procedure: In order to expand the anti-tumor spectrum, more combination testing is explored. Based on in vitro synergistic effect of Example 1 and VCR, the compound is tested for its anti-tumor effects in SKOV-3x-FF-luci xenograft in the presence/absence of VCR. The SKOV-3x-FF-luci human ovarian cancer line (ATCC) is cultured in McCoy's 5a medium containing 10% FCS. Female Balb/c nu/nu mice (6-7 weeks old) are peritoneally injected with 0.2 mL of cell suspension containing 2×10^6 cells. Mice are divided into nine groups six days after cell implantation. The test compound is orally administered twice a day at 60 mg/kg for 20 consecutive days or at 90 mg/kg with a 2 days on and 5 days off dosing schedule. VCR at 1 or 0.3 mg/kg is administered via tail vein injection, once a week. In the combination group, VCR is given 1 h after the administration of the test compound. Mice from the control group are administered with the oral vehicle (10% Acacia at pH2.1) and intraperitoneally injected with saline. At the end of the treatment, all mice are euthanized with CO2 and tumors in the peritoneal cavity, diaphragmatic muscle, mesenterium, liver, spleen, and ovaries are harvested with surgery scissors and weighted. […] In the combination group, tumor growth is inhibited by 76% and 74%. Compared with monotherapy, statistical significance is found between combination and monotherapy.

C[C@@H]1C[C@H]2[C@@H]3CCC4=CC(=O)C=C[C@]4(C)[C@@]3(F)[C@@H](O)C[C@]2(C)[C@@]1(O)C(=O)CO [Dexamethasone, reference compound]
decrease of IL-13 in BALF [1]: 77%

CC[C@]1(O)C[C@H]2CN(CCc3c([nH]c4ccccc34)[C@@](C(=O)OC)(c3cc4c(cc3OC)N(C=O)[C@H]3[C@@](O)(C(=O)OC)[C@H](OC(C)=O)[C@]5(CC)C=CCN6CC[C@]43[C@@H]65)C2)C1 [Vincristine, vincristine sulfate, reference compound]
inhibition at 0.25 µM (Skov3-luc cells): 25%
inhibition at 0.15 µM (BxPC-3 cells; Homo sapiens, BXPC-3, 72 h, Vincristine 0.15 μM alone, read-out: Ave. Inhibition rate): 5.73%
Ave. Inhibition rate (BxPC-3 cells; Vincristine 0.15 μM alone): 9.48%
tumor growth inhibition [2]: 38%

TNFα
Ave. Inhibition rate (BxPC-3 cells; TNFα 5 ng/mL alone): 5.73%
